Series [1] deals with NCI-H358. In words: Antiproliferative activity against human NCI-H358 cells assessed as reduction in cell viability. In kind it is functional, cell-based.
The subject of series [2] is MIA PaCa-2. In words: Antiproliferative activity against human MIA PaCa-2 cells assessed as reduction in cell viability. In kind it is functional, cell-based.
Series [3] can be described thus: Antiproliferative activity against human ROSA KIT WT cells. In kind it is toxicity, cell-based.
For series [4], the system named is KARPAS-299. In words: cells. To be noted: Homo sapiens, KARPAS-299, 72 h.
Description: Antiproliferative activity against human KARPAS-299 cells assessed as inhibition of cell growth incubated for 72 hrs by celltiter-glo assay
Series [5] is described as follows: Inhibition of BTK C481T mutant (unknown origin). Also noted: species or system Homo sapiens.
Series [6] addresses Tyrosine-protein kinase BTK (Homo sapiens, UniProt Q06187).
Description: Inhibition of wild type BTK in human CLL cells assessed as
The nature of series [7]: Anticancer activity against human ME-1 cells. In kind it is functional, cell-based.
In series [8] the test system is RPMI-8226. In words: Anticancer activity against human RPMI-8226 cells assessed as reduction in cell growth. In kind it is functional, cell-based.
The subject of series [9] is U-266. In words: Antiproliferative activity against human U266B1 cells assessed as reduction in cell viability. In kind it is functional, cell-based.
In series [10] the target is Phosphatidylinositol 4,5-bisphosphate 3-kinase catalytic subunit gamma isoform (Homo sapiens, UniProt P48736). In words: Inhibition of PI3Kgamma (unknown origin).
Phosphatidylinositol 4,5-bisphosphate 3-kinase catalytic subunit gamma isoform, sequence (P48736 whole entry, canonical isoform): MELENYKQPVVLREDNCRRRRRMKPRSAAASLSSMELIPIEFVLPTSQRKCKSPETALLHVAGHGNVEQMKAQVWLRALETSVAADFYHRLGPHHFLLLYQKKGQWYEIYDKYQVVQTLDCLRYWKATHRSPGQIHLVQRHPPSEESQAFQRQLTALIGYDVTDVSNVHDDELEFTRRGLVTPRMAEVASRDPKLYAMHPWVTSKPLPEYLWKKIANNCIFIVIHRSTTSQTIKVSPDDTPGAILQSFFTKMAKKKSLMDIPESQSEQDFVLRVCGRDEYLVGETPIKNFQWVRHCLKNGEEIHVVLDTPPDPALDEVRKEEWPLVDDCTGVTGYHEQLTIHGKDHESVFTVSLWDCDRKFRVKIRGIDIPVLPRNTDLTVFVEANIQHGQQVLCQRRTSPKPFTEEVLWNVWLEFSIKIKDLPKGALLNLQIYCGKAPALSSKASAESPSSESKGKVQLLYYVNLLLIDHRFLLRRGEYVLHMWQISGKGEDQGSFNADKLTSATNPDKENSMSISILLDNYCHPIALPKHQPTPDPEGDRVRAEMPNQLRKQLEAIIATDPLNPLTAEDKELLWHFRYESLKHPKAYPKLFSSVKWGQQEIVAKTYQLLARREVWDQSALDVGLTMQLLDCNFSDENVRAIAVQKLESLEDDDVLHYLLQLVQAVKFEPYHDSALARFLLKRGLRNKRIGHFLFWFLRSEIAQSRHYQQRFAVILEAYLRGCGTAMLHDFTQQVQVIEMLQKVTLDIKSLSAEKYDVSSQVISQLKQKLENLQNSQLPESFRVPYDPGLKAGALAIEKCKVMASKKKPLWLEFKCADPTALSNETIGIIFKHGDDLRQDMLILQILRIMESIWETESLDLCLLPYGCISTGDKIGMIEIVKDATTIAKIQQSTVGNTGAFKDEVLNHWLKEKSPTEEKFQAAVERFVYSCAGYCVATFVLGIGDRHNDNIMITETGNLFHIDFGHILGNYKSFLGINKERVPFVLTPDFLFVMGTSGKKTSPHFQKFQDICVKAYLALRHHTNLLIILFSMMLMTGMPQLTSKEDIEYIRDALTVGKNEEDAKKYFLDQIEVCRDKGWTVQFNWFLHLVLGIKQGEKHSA
Series [11] concerns the target ALK tyrosine kinase receptor (Homo sapiens, UniProt Q9UM73). In words: Inhibition of ALK (unknown origin).

Counter-ions that a name gives are not always drawn.

Tyrosine-protein kinase BTK, sequence (Q06187 whole entry): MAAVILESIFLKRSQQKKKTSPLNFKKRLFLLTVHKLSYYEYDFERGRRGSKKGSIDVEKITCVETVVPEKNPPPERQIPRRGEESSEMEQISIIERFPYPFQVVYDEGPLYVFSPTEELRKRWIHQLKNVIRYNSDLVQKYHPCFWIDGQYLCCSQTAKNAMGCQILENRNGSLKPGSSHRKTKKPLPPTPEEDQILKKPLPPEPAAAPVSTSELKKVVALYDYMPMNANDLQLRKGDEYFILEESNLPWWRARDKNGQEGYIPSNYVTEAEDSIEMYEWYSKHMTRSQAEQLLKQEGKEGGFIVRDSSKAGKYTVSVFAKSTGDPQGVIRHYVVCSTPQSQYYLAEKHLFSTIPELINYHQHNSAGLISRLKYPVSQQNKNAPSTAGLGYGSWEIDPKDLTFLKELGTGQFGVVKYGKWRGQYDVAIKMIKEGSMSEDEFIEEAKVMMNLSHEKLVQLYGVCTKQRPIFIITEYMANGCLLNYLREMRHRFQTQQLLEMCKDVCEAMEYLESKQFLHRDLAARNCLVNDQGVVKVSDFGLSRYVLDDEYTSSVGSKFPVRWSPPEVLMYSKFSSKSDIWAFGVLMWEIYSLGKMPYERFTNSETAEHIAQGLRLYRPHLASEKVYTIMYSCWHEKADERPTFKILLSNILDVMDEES
ALK tyrosine kinase receptor, sequence (Q9UM73 whole entry): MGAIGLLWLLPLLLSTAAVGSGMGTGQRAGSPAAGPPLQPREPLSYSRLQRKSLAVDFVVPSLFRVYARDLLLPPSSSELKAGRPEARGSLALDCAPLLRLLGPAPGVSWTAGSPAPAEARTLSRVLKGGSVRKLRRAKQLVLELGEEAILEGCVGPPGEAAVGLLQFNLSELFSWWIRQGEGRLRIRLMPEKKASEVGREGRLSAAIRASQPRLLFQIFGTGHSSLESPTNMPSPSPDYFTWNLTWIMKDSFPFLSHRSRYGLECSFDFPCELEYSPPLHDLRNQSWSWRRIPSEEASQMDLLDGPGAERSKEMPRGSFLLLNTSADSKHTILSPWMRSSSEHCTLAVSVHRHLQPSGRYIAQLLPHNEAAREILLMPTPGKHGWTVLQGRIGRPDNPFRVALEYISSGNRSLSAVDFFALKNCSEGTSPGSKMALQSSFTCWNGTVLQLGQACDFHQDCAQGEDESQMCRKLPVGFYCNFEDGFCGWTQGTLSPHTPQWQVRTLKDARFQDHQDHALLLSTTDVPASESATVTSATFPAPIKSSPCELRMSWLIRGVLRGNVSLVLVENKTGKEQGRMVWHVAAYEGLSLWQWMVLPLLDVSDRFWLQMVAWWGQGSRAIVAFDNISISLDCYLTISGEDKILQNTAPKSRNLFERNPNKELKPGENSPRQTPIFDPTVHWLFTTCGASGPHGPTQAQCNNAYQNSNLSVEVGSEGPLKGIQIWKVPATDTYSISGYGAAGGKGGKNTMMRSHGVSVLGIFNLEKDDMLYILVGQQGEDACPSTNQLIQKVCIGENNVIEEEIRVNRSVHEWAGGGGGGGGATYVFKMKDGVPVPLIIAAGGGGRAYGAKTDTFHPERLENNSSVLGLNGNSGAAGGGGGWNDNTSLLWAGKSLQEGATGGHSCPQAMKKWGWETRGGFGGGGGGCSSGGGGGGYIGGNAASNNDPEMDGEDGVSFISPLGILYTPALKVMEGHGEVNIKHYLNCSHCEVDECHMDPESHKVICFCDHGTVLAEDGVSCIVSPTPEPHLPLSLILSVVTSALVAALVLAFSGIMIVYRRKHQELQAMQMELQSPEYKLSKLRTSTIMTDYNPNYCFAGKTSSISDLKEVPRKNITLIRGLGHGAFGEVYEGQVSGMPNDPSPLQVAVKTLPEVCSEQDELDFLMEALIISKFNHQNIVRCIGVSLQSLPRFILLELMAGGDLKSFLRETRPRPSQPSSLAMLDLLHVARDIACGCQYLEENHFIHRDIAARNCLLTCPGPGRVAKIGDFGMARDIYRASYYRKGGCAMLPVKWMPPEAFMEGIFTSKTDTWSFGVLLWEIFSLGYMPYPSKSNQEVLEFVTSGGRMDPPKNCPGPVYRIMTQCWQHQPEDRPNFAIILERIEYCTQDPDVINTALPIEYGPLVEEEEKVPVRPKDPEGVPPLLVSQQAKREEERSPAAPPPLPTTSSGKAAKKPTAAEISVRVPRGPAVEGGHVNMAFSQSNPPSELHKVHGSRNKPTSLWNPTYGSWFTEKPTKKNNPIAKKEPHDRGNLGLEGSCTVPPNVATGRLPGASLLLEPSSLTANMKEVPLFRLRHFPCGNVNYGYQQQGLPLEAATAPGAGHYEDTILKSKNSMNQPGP

The IC50 is the concentration needed to halve the response being measured. Take `C=CC(=O)N1CCN(c2nc(=O)n(-c3c(C)ccnc3C(C)C)c3nc(-c4c(O)cccc4F)c(F)cc23)[C@@H](C)C1` [SOTORASIB]: the IC50 was 6 nM in series [1] and 9 nM in series [2].
In turn, `CCn1c(=O)c(-c2cc(NC(=O)Nc3ccccc3)c(F)cc2Br)cc2cnc(NC)cc21` [RIPRETINIB] yielded an IC50 in series [3] of 34 nM.
On to `CN1CCN(c2ccc(C(=O)Nc3n[nH]c4ccc(Cc5cccc(F)c5)cc34)c(NC3CCOCC3)c2)CC1`, for which the IC50 in series [4] came to 10 nM.
For the molecule `COc1ccc(F)cc1C(=O)NCc1ccc(-c2nn([C@@H](C)C(F)(F)F)c(N)c2C(N)=O)cc1` [PIRTOBRUTINIB], the concentration for half-maximal inhibition (IC50) is 7.23 nM in series [5] and 3.68 nM in series [6].
Molecule `O=C(/C=C\n1cnc(-c2cc(C(F)(F)F)cc(C(F)(F)F)c2)n1)NNc1cnccn1` [SELINEXOR] had a half-inhibitory concentration (IC50) in series [7] of 34 nM.
Regarding `CCOC(=O)[C@H](Cc1ccc(F)cc1)NC(=O)[C@@H](N)Cc1ccc(N(CCCl)CCCl)cc1` [MELPHALAN FLUFENAMIDE HYDROCHLORIDE], the concentration for half-maximal inhibition (IC50) in series [8] was determined as 4 nM; in series [9], 6 nM.
Molecule `CCC(=O)N1CC[C@H](Nc2ncnc3c2CN(c2cnc(OC)c(C(F)(F)F)c2)CC3)C1` [LENIOLISIB] came in with an IC50 in [10] of 2.23 nM.
On to `CN1CCN(c2ccc(C(=O)Nc3n[nH]c4ccc(Cc5ccccc5)cc34)c(NC3CCOCC3)c2)CC1`, for which the half-maximal inhibitory concentration (IC50) amounted to 100 nM in series [11] and 180 nM in series [4].

The values above are taken from ChEMBL document CHEMBL6071132, “Synthetic approaches and application of representative clinically approved fluorine-enriched anti-cancer medications” (Eur J Med Chem, 2024).
